In ChEMBL document CHEMBL1151129, “Two new bioactive carbazole alkaloids from the root bark of Clausena harmandiana” (J Nat Prod, 1988):
Values after ≈ are worked out from the molar mass of the structure shown.

Legend:
Artemia = assay: Toxicity to brine shrimp; type: organism-based; settings: in vivo
[1] = Cytotoxicity against human 9KB cells; type: functional; settings: read-out: ED50 (the source's name)
[2] = Cytotoxicity against human KBMRI cells; type: functional; settings: read-out: ED50 (the source's name)
A549 = assay: Cytotoxicity against human A549 cells; type: functional; settings: read-out: ED50 (the source's name)
HT-29 = assay: Cytotoxicity against human HT-29 cells; type: functional; settings: read-out: ED50 (the source's name)
[3] = Cytotoxicity against mouse 9PS cells; type: functional; settings: read-out: ED50 (the source's name)

Row | SMILES | LC50 (Artemia) [ppm] | EC50 [1] [µg/mL] | EC50 [2] [µg/mL] | EC50 (A549) [µg/mL] | EC50 (HT-29) [µg/mL] | EC50 [3] [µg/mL]
1 | COc1ccc2c(c1)[nH]c1cc(O)c(C=O)cc12 | 35 | 5.7 (≈ 23.6 µM) | 4.48 (≈ 18.6 µM) | 2.74 (≈ 11.4 µM) | 4 (≈ 16.6 µM) | > 10
2 | COc1ccc2c(c1)[nH]c1c(CC=C(C)C)c(O)c(C=O)cc12 | > 500 | 3.01 (≈ 9.73 µM) | 2.87 (≈ 9.28 µM) | 2.16 (≈ 6.98 µM) | 1.36 (≈ 4.4 µM) | > 10
